Reference: patent US4154839A, “2,6-Dimethyl -3-carboxymethoxy-4-(2-nitrophenyl)-5-carbisobutoxy-1,4-dihydropyridine” (priority 1975, dated 1979)

Tests used:
heart muscle = test: myocardial (heart) perfusion in canines, electromagnetic flow meter, sublingual administration; assay type: in vivo; details: for % Increase in Heart Perfusion / Half-life duration (of heart perfusion increase): canines
Text: The ability of the compound to assist in the perfusion action of the heart muscle can be conveniently observed in recognized pharmacological models. For example, the myocardial perfusion in canines can be observed utilizing an electromagnetic flow meter. Upon sublingual administration to canines, the following pharmacological manifestations are, for example, observed.

[1] = blood pressure decrease in canines upon sublingual administration; assay type: in vivo; details: for Blood Pressure Decrease (%): canines
stability towards light = assay type: physicochemical; details: compared with previously known 1,4-dihydropyridines
coronary perfusion = test: coronary activity / effect on coronary perfusion (general statement); assay type: in vivo

Structure (SMILES): COC(=O)C1=C(C)NC(C)=C(C(=O)OCC(C)C)C1c1ccccc1[N+](=O)[O-] (stereo not shown) [the compound, isobutyl methyl 1,4-dihydro-2,6-dimethyl-4-(2-nitrophenyl)-3,5-pyridinedicarboxylate]
- % Increase in Heart Perfusion (heart muscle; 0.003 mg/kg sublingual): 23%
- Half-life duration (of heart perfusion increase) (heart muscle; 0.003 mg/kg sublingual): 1.67 h
- % Increase in Heart Perfusion (heart muscle; 0.01 mg/kg sublingual): 46%
- Half-life duration (of heart perfusion increase) (heart muscle; 0.01 mg/kg sublingual): 2.22 h
- % Increase in Heart Perfusion (heart muscle; 0.1 mg/kg sublingual): 142%
- Half-life duration (of heart perfusion increase) (heart muscle; 0.1 mg/kg sublingual): 3.07 h
- increase of perfusion of the heart muscle, dose dependence (in words) (heart muscle; sublingual administration): increases the perfusion of the heart muscle and that this action is a function of dose
- onset of action after sublingual administration (heart muscle; sublingual administration): a few minutes after sublingual administration
- total duration of action on heart muscle perfusion (heart muscle; sublingual administration, depending upon the dose): 2 to 6 h
- Blood Pressure Decrease (%) ([1]; 0.003 mg/kg sublingual): .phi.
- Blood Pressure Decrease (%) ([1]; 0.01 mg/kg sublingual): 5%
- Blood Pressure Decrease (%) ([1]; 0.1 mg/kg sublingual): 13%
- lowering of blood pressure (in words) ([1]; sublingual administration): slight and equally long lasting lowering of blood pressure
- stability towards light (stability towards light): considerably greater stability towards light than previously known 1,4-dihydropyridines
- coronary activity, magnitude and length of action (coronary perfusion; compared with any 1,4-dihydropyridine presently known): significantly greater than any 1,4-dihydropyridine presently known
- effect on coronary perfusion (in words) (coronary perfusion; in vivo): powerful and long acting effect on coronary perfusion
